Test results reported in patent publication US20070196434A1, “Methods of preventing or treating sinusitis with oxidative reductive potential water solution” (priority 2006, published 2007).
Read-outs that look alike come from different tables or passages of the source. Bridge positions count the residues as written; N and C are the ends. Square brackets hold non-standard residues; d marks the D form. Peptide text beside a SMILES is read from it. * marks the point of attachment. Ileψ(thiazoline)Cys = CC[C@H](C)[C@H](N)C1=N[C@H](C(=O)*)CS1; dOrn = NCCC[C@@H](N)C(=O)O

Assays:
[1] = test system: Pseudomonas aeruginosa, and Staphylococcus aureus; assay: Bacterial suspension assay, vegetative bacteria; format: cell-based; conditions: all time points (20 seconds, 5 minutes, 20 minutes) at 20° C.; Bacitracin 33 Units/ml
[2] = test system: spore suspension of B. atropheus; assay: Bacterial suspension assay, spores; format: cell-based; conditions: 5, and 20 minute time points at 20° C.; Bacitracin 33 Units/ml
Description: Dermacyn is a ready to use product, therefore performing dilutions during testing was not required.
A purchased spore suspension of B. atropheus at 2.5×10^7 /ml was used for testing. In addition fresh suspensions of Pseudomonas aeruginosa, and Staphylococcus aureus were prepared and measured using a spectrophotometer to ensure the titer was acceptable
Nine microliters of test substance was added to 100 ul of microbe suspension. The test mixture was held at 20° C. for the contact times of 20 seconds, 5 minutes, and 20 minutes. 1.0 ml of the test mixture (entire mixture) was added to 9,0 ml of neutralizer for 20 minutes (this is the original neutralization tube or ONT) 1.0 ml of the neutralized test mixture was plated on Tryptic Soy Agar in duplicate for the 5 minute and 20 minute contact times. Additional dilutions and spread plates were used for the 20 second time point, to achieve countable plates.
All plates were incubated at 30° C.-35° C. for a total of 3 days and were evaluated after each day of incubation.

[3] = test system: human diploid fibroblasts (HDFs); format: cell-based; conditions: 880 mM
Description: HP is known to be toxic to eukaryotic cells, increasing apoptosis and necrosis and reducing cellular viability. […] HDF cultures were obtained from three different foreskins, which were pooled and cryopreserved together for the purpose of this study. Only diploid cells were used for all experiments. […] Simultaneous analyses of these parameters were performed in the same cell populations by flow cytometry using: […] B) Annexin V-FITC; and C) Propidium iodide. FIG. 4A-4C disclose percentage values expressed as mean±SD (n=3).

[4] = test system: human diploid fibroblasts (HDFs); conditions: 1 month, 5 μM
[5] = test system: human cell cultures

SMILES	log reduction of the vegetative bacteria [1]	log reduction of spores [2]	Cell viability ([3]; 5 min) [%]	apoptosis (Annexin-V) ([3]; 5 min) [%]	necrosis (cells incorporating propidium iodide) ([3]; 5 min) [%]	Cell viability ([3]; 30 min) [%]	apoptosis (Annexin-V) ([3]; 30 min) [%]	necrosis (cells incorporating propidium iodide) ([3]; 30 min) [%]	cells with SA-β-Gal expression [4] [%]	RNA degradation [5]
CC[C@H](C)[C@H](N)C1=N[C@H](C(=O)N[C@@H](CC(C)C)C(=O)N[C@H](CCC(=O)O)C(=O)N[C@H](C(=O)N[C@H]2CCCCNC(=O)[C@H](CC(N)=O)NC(=O)[C@@H](CC(=O)O)NC(=O)[C@H](Cc3cnc[nH]3)NC(=O)[C@@H](Cc3ccccc3)NC(=O)[C@H]([C@@H](C)CC)NC(=O)[C@@H](CCCN)NC2=O)[C@@H](C)CC)CS1 [Bacitracin] ({Ileψ(thiazoline)Cys}-L[dE]IK[dOrn]I[dF]H[dD]N; lactam 4-C)	no evidence of lowering the bacterial or spore populations	no evidence of lowering the bacterial or spore populations								
OO [HP, hydrogen peroxide]			55	15	20	5	20	75	86	significant RNA degradation
